Where “and” joins values, the source holds several entries; their conditions need not be identical. Identical values can stand only once. Entries after “also recorded” stand apart in the source; their conditions may differ. Like-named read-outs stand apart in the source and are kept apart here.
Tests used:
[1] = system: rat hearts; assay: ischemia/reperfusion damage in ex vivo Langendorff rat hearts, infarct size by TTC staining; conditions: for ischemic damage by TTC staining of heart sections: ischemia/reperfusion
[2] = system: AldDH2; assay: aldehyde dehydrogenase enzymatic activity in homogenates of ex vivo Langendorff rat hearts (NADH at 340 nm, acetaldehyde substrate); assay type: biochemical; conditions: for rate of NADH accumulation (absorbance at 340 nm), FIG. 4: ethanol before ischemia vs I/R alone or normoxia, cyanamide in ethanol treated ischemic or normoxic samples; for inhibition of AldDH2: during ischemia reperfusion
Protocol: Ex vivo Langendorff preparation of rat hearts were used as a model to assess the damage incurred by no-flow ischemia and reperfusion injury. This is an experimental model that mimics the clinical situation of myocardial infarction in patients. Rat hearts were excised and cannulated on a Langendorff apparatus via the aorta. Retrograde perfusion was carried out using the standard oxygenated Kreb-Hensleit buffer maintained at 37° C. All hearts were stabilized by an initial 5- to 10-minute perfusion period followed by delivery of different cardioprotective agents or AldDH2 inhibitors for 10-30 minutes, depending on the reagent. […] Ischemia was then introduced by 25 minutes of no-flow followed by 60 minutes of reperfusion. The degree of ischemia/reperfusion damage was measured by two independent commonly accepted parameters. […] In another assay, creatine phosphate kinase activity was measured from reperfusate of each heart collected during reperfusion. […] Homogenates from each heart was also obtained from a separate section of the identical sample and analyzed for aldehyde dehydrogenase enzymatic activity. Enzymatic activity was determined by a standard spectrophotometric method described above using acetaldehyde as the substrate and NAD^+ as a cofactor. FIG. 2: An experimental protocol using an ex vivo Langendorff heart. Rat hearts were excised and cannulated on a Langendorff apparatus via aorta. Retrograde perfusion was carried out using the standard oxygenated Kreb-Hensleit buffer maintained at 37° C. […] Peptides used were a selective activator (εV1-7) or inhibitor (εV1-2) or epsilon protein kinase C (εPKC). Ischemia was then introduced by 25 minutes of no-flow followed by 60 minutes of reperfusion. […] FIG. 3: Formation of acetic acid from acetaldehyde by action of aldehyde dehydrogenase. Enzymatic activity of aldehyde dehydrogenase is determined by a standard photospectrometric method using acetaldehyde as a substrate. In this reaction, aldehyde dehydrogenase catalyzes the oxidation of acetaldehyde to acetic acid. Concomitantly, NAD^+ is reduced to NADH resulting in an increase in absorbance at 340 nm wavelength in a photospectrometer. The rate of NADH increase is proportional to the enzymatic activity of aldehyde dehydrogenase.

## O=[N+]([O-])OCC(CO[N+](=O)[O-])O[N+](=O)[O-] [Nitroglycerin, nitroglycerin]
[1]
  increase in infarct damage: 36% and 31%
  increase in ischemia/reperfusion damage as measured by infarct size: 29%

## CCO [ethanol]
[2]; as compared to ischemia/reperfusion control, ethanol 50 mM for 10 minutes, peptide 1 μM
  increase in AldHD2 activity: 25%
[2]
  rate of NADH accumulation (absorbance at 340 nm), FIG. 4: increase in the rate of absorbance
[1]; compared to control heart
  ischemic damage by TTC staining of heart sections: leads to cardioprotection

## N#CN [cyanamide]
[2]; co-treatment, ischemia/reperfusion
  effect on induction of AldDH2 activity by ethanol or εPKC agonist peptide: effect of induction is also greatly abolished
[2]; cyanamide treatment in the absence of ethanol or peptide
  inhibition of AldDH2: 63%
[2]; cyanamide treatment in the presence of ethanol
  inhibition of AldDH2: 64%
[2]; cyanamide treatment in the presence of peptide
  inhibition of AldDH2: 74%
[2]
  rate of NADH accumulation (absorbance at 340 nm), FIG. 4: reduction of NADH accumulation
[2]; normoxic
  AldDH2 activity in normoxic heart samples: inhibition of AldDH2 activity
[1]; agent alone, compared to no treatment control
  increase in ischemia/reperfusion damage as measured by infarct size: 49%
[1]; in samples treated with ethanol
  increase in infarct damage: 62%
[1]; in samples treated with εPKC agonist peptide
  increase in infarct damage: 56%
[1]; compared to control heart
  ischemic damage by TTC staining of heart sections: eliminates the protective effect of ethanol and leads to an even greater damage as compared to control
[1]; normoxic, compared to control heart
  cardiac damage under normoxic condition: does not produce any significantly greater damage than the control heart; also recorded: did not lead to any greater cardiac damage

Reference: patent publication US7560241B2, “Methods and compositions for modulating mitochondrial aldehyde dehydrogenase-2” (The Board of Trustees of the Leland Stanford Junior …, priority 2003, dated 2009)
